Assay results as given in US20090137493A1, “Inhibition of tumor metastases using protein kinase C (PKC) inhibitors” (priority 2007, published 2009).
Bridges are numbered along the chain shown (N, C = ends). Where no end group is shown, it is not given here.

Legend:
JC tumor cells = assay: Growth rate of JC tumor cells in vitro; assay type: cell-based, mouse; details: doses of 0, 1, 5 and 10 μM, compared to TAT carrier peptide control
Method: (§1) FIGS. 6B-6C are bar graphs showing the affect of the αV5-3-TAT peptide on growth rate of JC tumor cells (FIG. 6B) and 4T1 tumor cells (FIG. 6C) in vitro. The cells treated with the TAT carrier peptide (TAT) or with αV5-3-TAT peptide (PKC alpha inhibitor), at doses of 0, 1, 5, and 10 μM.
(§2) To determine if the effects observed with the α and βIIPKC peptide inhibitors was due to a decrease in metastasis as opposed to a decrease in primary tumor growth, animals injected with 4T1 tumor cells were treated with saline, the αV5-3-TAT conjugate peptide (αPKC), or the βIIV5-3-TAT conjugate peptide (βPKC) and the number of tumors cells at the primary site of injection were determined.

4T1 tumor cells [1] = assay: Growth of primary tumors in vivo (number of tumor cells at primary site of injection); set-up: species or system mice; details: animals injected with 4T1 tumor cells, FIG. 6A, versus saline
Method: FIG. 6A is a bar graph showing the affect of saline, the αV5-3-TAT conjugate peptide (αPKC), or the βIIV5-3-TAT conjugate peptide (βPKC) on the growth rate of primary tumors in vivo.
as §2

CXCR4 chemokine receptor = assay: CXCR4 expression on the surface of tumor cells from treated animals; assay type: in vivo; details: cells from primary tumors of treated animals, versus TAT, FIG. 10B
From the text: FIG. 10B is a bar graph showing the relative expression levels of CXCR4 chemokine receptor on the surface of tumor cells from animals treated with the TAT carrier peptide (TAT) or the αV5-3-TAT peptide (Alpha inhibitor).
Cells from primary tumors in animals treated with the αPKC inhibitor were also isolated and assayed for levels of CXCR4 (FIG. 10B) and levels of matrix metalloproteinase 2 (MMP2) activity (FIG. 10C).

4T1 tumor cells [2] = assay: Growth rate of 4T1 tumor cells in vitro; assay type: cell-based, mouse; details: doses of 0, 1, 5 and 10 μM, compared to TAT carrier peptide control
Method: as §1, §2

[3] = Blood cell numbers (white blood cells, lymphocytes, neutrophils) in treated animals; assay type: in vivo
From the text: FIGS. 11A-11B are bar graphs showing the relative serum levels of liver enzymes aspartate transaminase (AST; FIG. 11A) and alanine transaminase (ALT; FIG. 11B) in animals treated with saline or TAT (untreated) or the αV5-3-TAT peptide (aV5-3). FIGS. 11C-11E are bar graphs showing the relative serum levels of white blood cells (FIG. 11C), lymphocytes (FIG. 11D), and neutrophils (FIG. 11E).
Rather, the numbers of white blood cells (FIG. 11C), lymphocytes (FIG. 11D), and neutrophils (FIG. 11E) were all increased in αV5-3 treated animals compared to control (TAT) treated animals.

4T1 cells = assay: Wound healing (migration) assay, 4T1; assay type: cell-based, mouse; details: peptide 1 uM, re-applied every 2 h for 8 h
Method: FIGS. 16A-16D are micrographs showing the efficacy of TAT carrier peptide (TAT; FIG. 16A), αV5-3-TAT peptide (Alpha; FIG. 16B), βIIV5-3 peptide (Beta2; FIG. 16C), and εV1-2 (Epsilon; FIG. 16D) on 4T1 cell migration.
To investigate the role of PKC inhibitors in reducing the migration of tumor cells, in vitro migration assays were performed using MDA-MB-231 breast cancer cells (FIGS. 12A-12D), MCF-7 breast cancer cell (FIGS. 13A-13D), JC cells (FIGS. 15A-15D), and 4T1 cells (FIGS. 16A-16D), in the presence of TAT carrier peptide (TAT), αV5-3-TAT peptide (Alpha), βIIV5-3 peptide (Beta2), or εV1-2 peptide (Epsilon).
Wound healing assay: Human or mouse breast cancer cell lines were grown in 6-well plates until about 90% confluent. Cells were then grown in serum free media overnight, before media was changed to media +1% FBS and peptide PKC inhibitors added (1 uM), at the same time a pipette tip was drawn across the cell layer to create a scrape ‘wound’. PKC inhibitors were re-applied every 2 h for a total of 8 h, before cells were left for a further 12 h and then the scrape was examined under phase contrast microscopy.

tumor cells [4] = assay: Survival of animals after intravenous administration of tumor cells; assay type: in vivo, mice; details: versus saline (PBS)
Method: FIG. 9 is a graph showing the percent surviving animals in the time (in days) following intravenous administration of tumor cells. The mice were treated with saline (squares; PBS) or the αV5-3-TAT peptide (circles; peptide).

tumor cells [5] = assay: Adhesion of intravenously injected tumor cells to the lungs (imaging); assay type: in vivo, mice; details: for adhesion of tumor cells in the lung, imaging: versus TAT
Method: FIG. 7A is a bar graph showing the affect of αV5-3-TAT peptide on the adhesion of tumor cells into the lungs. Animals were treated with TAT carrier peptide (TAT), or αV5-3-TAT peptide (PKC alpha inhibitor), initiated two days before, and continued for 12 days following, injection of tumor cells intravenously;
FIGS. 7B-7C are images of mice two days after treatment as described in FIG. 7A. The mice in FIG. 7B were treated with TAT and the mice in FIG. 7C treated with αV5-3-TAT peptide.
FIGS. 7D-7E are images of mice following five days of treatment as described in FIG. 7A. The mice in FIG. 7D were treated TAT (control) and the mice in FIG. 7E were treated with αV5-3-TAT peptide (PKC a inhibitor).
For example, FIG. 7A is a bar graph showing the affect of αV5-3-TAT peptide on the adhesion of tumor cells into the lungs. In this experiment, animals were treated with TAT carrier peptide (TAT), or αV5-3-TAT peptide (PKC alpha inhibitor), for two days before injection of tumor cells intravenously. Adhesion of tumor cells to the lung was reduced in animals treated with the PKC alpha inhibitor compared to control animals.
FIGS. 7B and 7C are images of representative mice two days after treatment. The mice in FIG. 7B were treated with TAT and the mice in FIG. 7C treated with αV5-3-TAT peptide. […] FIGS. 7D-7E are images of mice following five days of treatment. The mice in FIG. 7D were treated TAT (control) and the mice in FIG. 7E were treated with αV5-3-TAT peptide (PKC a inhibitor).

YGRKKRRQRRR-CC-QLVIAN (YGRKKRRQRRRCCQLVIAN; disulfide 12-13 (inferred)) [αV5-3-TAT]
inhibition of growth of JC tumor cells in vitro (JC tumor cells): does not substantially inhibit | reduction in the number of cells at the primary tumor site (4T1 tumor cells [1]): two-fold | decrease of relative expression levels of CXCR4 chemokine receptor on the surface of tumor cells (CXCR4 chemokine receptor): 4-5 fold | inhibition of growth of 4T1 tumor cells in vitro (4T1 tumor cells [2]): does not substantially inhibit | numbers of white blood cells ([3]; compared to control (TAT) treated animals, FIG. 11C): increased | numbers of lymphocytes ([3]; compared to control (TAT) treated animals, FIG. 11D): increased | numbers of neutrophils ([3]; compared to control (TAT) treated animals, FIG. 11E): increased | signs of immunosuppression ([3]; treated animals, FIGS. 11C-11E): no signs of immunosuppression | migration of 4T1 cells in vitro (4T1 cells): did not affect | survival time (tumor cells [4]): longer survival times | adhesion of tumor cells in the lung, imaging (tumor cells [5]; five days of treatment, FIGS. 7D-7E): reduced adhesion | adhesion of tumor cells to the lung (tumor cells [5]; treatment from two days before intravenous injection of tumor cells, FIG. 7A, versus TAT control): reduced | adhesion of tumor cells in the lung, imaging (tumor cells [5]; two days after treatment, FIGS. 7B-7C): reduced adhesion
